These results are taken from ChEMBL document CHEMBL1201862, “PubChem BioAssay data set” (2004).

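Five concentrations, 48 hours, 96-well plates. GI50 is the concentration that inhibits growth by half.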 Active and inactive are the calls of the source. Rule as the data show it: active = GI50 up to about 1.1 µM and inactive = higher. Where only a bound is given, the exact number is not on record here.

Among the test systems are UO-31; UACC-62; COLO 205; M14; KM12; MOLT-4; SK-MEL-5; OVCAR-5; SK-MEL-28; RPMI-8226; NCI-H460; OVCAR-3; SR; Malme-3M; HCT-15; A549; HCC 2998; SK-OV-3; EKVX.
Assay in all cases: DTP human tumour cell line panel, 48 h

A word on the GI50: it is the concentration at which growth is held to half of that of the control. Take `CC1CC(=O)NC2CC1C2(C)C` (configuration not stated): the GI50 in the assay with UO-31, in the assay with UACC-62, in the assay on COLO 205, in the assay on M14, in the assay with KM12 and with MOLT-4 was > 100 µM (inactive) each time. The GI50 in the assay with SK-MEL-5, in the assay on OVCAR-5, in the assay with SK-MEL-28, with RPMI-8226, in the assay on NCI-H460 and in the assay on OVCAR-3 was > 100 µM (inactive) throughout. Also, the GI50 is > 100 µM (inactive) in the assay on SR; > 100 µM (inactive) with Malme-3M; > 100 µM with HCT-15; > 100 µM (inactive) in the assay with A549; > 100 µM (inactive) with HCC 2998.

As to `CCC1=C(C)C(=O)N/C1=C\c1[nH]c(C)c([C@H](C)CCN)c1C`, the GI50 is 15.8 µM (inactive) in the assay on UO-31; 17.3 µM (inactive) in the assay on UACC-62; 16.9 µM (inactive) with SK-OV-3; 16.4 µM (inactive) in the assay with COLO 205; 15.8 µM (inactive) with M14; 15.7 µM (inactive) in the assay with KM12. Further, the GI50 was 34 µM (inactive) in the assay on MOLT-4; 17.2 µM (inactive) with SK-MEL-5; 17.5 µM (inactive) in the assay with OVCAR-5; 17.3 µM (inactive) in the assay on SK-MEL-28; 25.6 µM (inactive) in the assay on RPMI-8226; 20.3 µM (inactive) with NCI-H460. The GI50 in the assay on OVCAR-3 was 16 µM (inactive); in the assay on SR it was 50.6 µM (inactive); in the assay with Malme-3M, 18.7 µM (inactive); in the assay with HCT-15, 14.8 µM; in the assay on A549 it was 16.1 µM (inactive); with EKVX, 14.4 µM (inactive).

With `COc1cc(C(C#N)NNC(=O)Cc2ccccc2)cc(OC)c1OC` (configuration not stated), the GI50 with UO-31 was 72.3 µM (inactive); in the assay on UACC-62, > 100 µM (inactive); with SK-OV-3, > 100 µM (inactive); in the assay on COLO 205, > 100 µM (inactive); in the assay with M14, > 100 µM (inactive); in the assay on KM12, > 100 µM (inactive). Moreover, the GI50 with MOLT-4, in the assay with SK-MEL-5, in the assay on OVCAR-5, with SK-MEL-28, with RPMI-8226 and with NCI-H460 was > 100 µM (inactive) throughout. The GI50 was > 100 µM (inactive) with OVCAR-3; > 100 µM (inactive) with SR; > 100 µM (inactive) with Malme-3M; > 100 µM in the assay on HCT-15; > 100 µM (inactive) with A549.

For the compound `Cc1ccc(CC(C)N)cc1` (configuration not stated), the GI50 in the assay on UO-31, in the assay with UACC-62, with SK-OV-3, in the assay on COLO 205, in the assay on M14 and with KM12 was > 100 µM (inactive) throughout. Further, the GI50 in the assay on MOLT-4, in the assay on SK-MEL-5, in the assay on OVCAR-5, in the assay on SK-MEL-28, in the assay with RPMI-8226 and in the assay with NCI-H460 was > 100 µM (inactive) each time. In addition, the GI50 is > 100 µM (inactive) with OVCAR-3; > 100 µM (inactive) in the assay with Malme-3M; > 100 µM in the assay with HCT-15; > 100 µM (inactive) in the assay with A549; > 100 µM (inactive) in the assay on EKVX; > 100 µM (inactive) in the assay on HCC 2998.

Consider `O=C(O)CCCc1cc2c(s1)-c1cccc3cccc-2c13`, for which the GI50 in the assay on UO-31 is 17 µM (inactive); with UACC-62, 21.3 µM (inactive); in the assay with SK-OV-3, 19.8 µM (inactive); in the assay with COLO 205 it was 20.3 µM (inactive); with M14, 50.1 µM (inactive); with KM12, 19.4 µM (inactive). Besides, the GI50 was 24.1 µM (inactive) in the assay on MOLT-4; > 100 µM (inactive) in the assay on OVCAR-5; 34.2 µM (inactive) in the assay with SK-MEL-28; 21.5 µM (inactive) in the assay with RPMI-8226; > 100 µM (inactive) in the assay with NCI-H460; 19.1 µM (inactive) with OVCAR-3. Further, the GI50 is 23.7 µM (inactive) in the assay with SR; 28.9 µM (inactive) in the assay on Malme-3M; 20.2 µM in the assay on HCT-15; 36.6 µM (inactive) in the assay on A549; 24.3 µM (inactive) in the assay on HCC 2998.

As to `CC(C)N(C(=O)C12CC3CC(CC(C3)C1)C2)C(C)C`, the GI50 in the assay on UO-31, in the assay on UACC-62, in the assay with SK-OV-3, in the assay with COLO 205, in the assay with M14 and in the assay with KM12 was > 50 µM (inactive) throughout. For the same compound, the GI50 with MOLT-4, in the assay with SK-MEL-5, with OVCAR-5, in the assay with SK-MEL-28, in the assay on RPMI-8226 and in the assay with NCI-H460 was > 50 µM (inactive) throughout. Besides, the GI50 with OVCAR-3 is > 50 µM (inactive); with Malme-3M it was > 50 µM (inactive); with HCT-15, > 50 µM; in the assay on A549 it was > 50 µM (inactive); in the assay with EKVX, > 50 µM (inactive); with HCC 2998 it was > 50 µM (inactive).

With `CC(C)(C)c1cc([Si](C)(C)C)c(C#N)c([Si](C)(C)C)c1`, the GI50 with UO-31 is > 100 µM (inactive); in the assay on UACC-62, 60.5 µM (inactive); in the assay with SK-OV-3, > 100 µM (inactive); in the assay with COLO 205, 51.3 µM (inactive); in the assay on M14 it was > 100 µM (inactive); with KM12, 88.9 µM (inactive). The GI50 with MOLT-4 was 37.2 µM (inactive); in the assay with OVCAR-5 it was > 100 µM (inactive); in the assay with SK-MEL-28, > 100 µM (inactive); with NCI-H460, > 100 µM (inactive); in the assay with OVCAR-3, > 100 µM (inactive); in the assay with SR it was 34.9 µM (inactive). Besides, the GI50 was > 100 µM (inactive) in the assay on Malme-3M; > 100 µM in the assay on HCT-15; 65.5 µM (inactive) in the assay with A549; > 100 µM (inactive) in the assay with EKVX; 90.6 µM (inactive) in the assay on HCC 2998.

Turning to `COc1cc([C@@H]2c3cc4c(cc3[C@@H](NC(=O)c3cccc(C#N)c3)C3COC(=O)[C@@H]32)OCO4)cc(OC)c1O` (some centres not stated), the GI50 is 5.47 µM (inactive) in the assay with UO-31; 0.308 µM (active) in the assay on UACC-62; 0.912 µM (active) with SK-OV-3; 2.96 µM (inactive) with COLO 205; 1.11 µM (active) in the assay with M14; 1.39 µM (inactive) in the assay on KM12. For the same compound, the GI50 in the assay on MOLT-4 is 15.1 µM (inactive); with SK-MEL-5 it was 0.815 µM (active); with OVCAR-5, 1.1 µM (active); in the assay on SK-MEL-28, 2.92 µM (inactive); with RPMI-8226, 7.14 µM (inactive); with NCI-H460, < 0.01 µM (active). For the same compound, the GI50 is 2.75 µM (inactive) in the assay with OVCAR-3; 0.65 µM (active) in the assay with Malme-3M; 3.81 µM in the assay with HCT-15; 0.0178 µM (active) in the assay with A549; 1.36 µM (inactive) in the assay with EKVX; 1.84 µM (inactive) with HCC 2998.

`Cc1ccc(Cn2c(C)nc3c2C(=O)c2ccccc2C3=O)cc1`: the GI50 in the assay with UO-31 was 6.32 µM (inactive); with UACC-62, 1.12 µM (inactive); in the assay with SK-OV-3 it was 13.8 µM (inactive); in the assay with COLO 205, 15.8 µM (inactive); in the assay on M14, 27.7 µM (inactive); in the assay on KM12, 4.56 µM (inactive). Besides, the GI50 in the assay with MOLT-4 is 0.64 µM (active); in the assay with SK-MEL-5 it was 4.52 µM (inactive); in the assay with SK-MEL-28, 23.5 µM (inactive); with NCI-H460, 0.387 µM (active); in the assay on OVCAR-3 it was 10.6 µM (inactive); in the assay with SR it was 0.331 µM (active). The GI50 was 10.9 µM (inactive) in the assay with Malme-3M; 0.619 µM in the assay with HCT-15; 4.63 µM (inactive) in the assay with A549; 18.2 µM (inactive) in the assay on EKVX; 17.6 µM (inactive) with HCC 2998.

With `COc1cc(Nc2nc3ccccc3nc2-c2cccs2)cc(OC)c1OC`, the GI50 in the assay with UO-31 is > 10 µM (inactive); in the assay on UACC-62, 36.2 µM (inactive); in the assay on SK-OV-3, 40.2 µM (inactive); with COLO 205 it was > 10 µM (inactive); in the assay on MOLT-4, 12.9 µM (inactive); in the assay on OVCAR-5 it was > 100 µM (inactive). Also, the GI50 in the assay with SK-MEL-28 was 52.1 µM (inactive); with RPMI-8226, 26.9 µM (inactive); in the assay on NCI-H460, 33.7 µM (inactive); in the assay with OVCAR-3 it was 43.8 µM (inactive); with SR, 26.1 µM (inactive); with Malme-3M it was 67.9 µM (inactive). Moreover, the 50% growth inhibitory concentration (GI50) was 19 µM in the assay on HCT-15, 21 µM (inactive) with A549, 89.5 µM (inactive) with EKVX and 36.4 µM (inactive) with HCC 2998.

Consider `O=C1C(C2=[N+]([O-])c3ccccc3C2=O)=[N+]([O-])c2ccccc21`, for which the GI50 in the assay on UO-31 is 43.1 µM (inactive); in the assay with UACC-62, > 10 µM (inactive); in the assay with SK-OV-3, 53.2 µM (inactive); in the assay on COLO 205, 17.7 µM (inactive); in the assay with M14, 16.6 µM (inactive); in the assay with KM12 it was > 10 µM (inactive). The GI50 was 15.3 µM (inactive) in the assay with MOLT-4; 17.8 µM (inactive) with SK-MEL-5; 94.4 µM (inactive) in the assay with OVCAR-5; 42.9 µM (inactive) in the assay on SK-MEL-28; 20.2 µM (inactive) in the assay with RPMI-8226; 23.1 µM (inactive) in the assay with NCI-H460. Also, the GI50 in the assay on OVCAR-3 was 16.3 µM (inactive); with SR, 22.5 µM (inactive); with A549 it was 26.4 µM (inactive); in the assay with EKVX it was 16.6 µM (inactive).

In the case of `COc1ccccc1-n1c(C)nc2ccccc2c1=O`, the GI50 with UO-31, with UACC-62, with SK-OV-3, in the assay on COLO 205, with M14 and in the assay on KM12 was > 100 µM (inactive) each time. The GI50 with MOLT-4, in the assay on SK-MEL-5, in the assay on OVCAR-5, in the assay on SK-MEL-28, with NCI-H460 and with OVCAR-3 was > 100 µM (inactive) throughout. The GI50 is > 100 µM (inactive) with SR; > 100 µM (inactive) with Malme-3M; > 100 µM in the assay with HCT-15; > 100 µM (inactive) in the assay with A549; > 100 µM (inactive) in the assay on EKVX; > 100 µM (inactive) in the assay on HCC 2998.
